Experimental data from the supplement of paper PMC10307832.

Experiments:
Experiment in all cases: relative viability (nuclei count vs DMSO), 5 days (fraction); higher = more cells survive
XMD13-2 + Alpelisib = compound: C1CC1C(=O)NC2=NNC3=C2C=CC(=C3)C4=CC(=CC=C4)C(=O)NC5CC5 [XMD13-2] + Cc1nc(NC(=O)N2CCC[C@H]2C(N)=O)sc1-c1ccnc(C(C)(C)C(F)(F)F)c1 [Alpelisib] (partner 2 µM)
How it was run: (§1)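 Lung cancer cell lines in 1536-well plates got either a single drug or a fixed anchor-drug dose together with five library-drug doses (not always all listed) in √10 steps, by pin tool, on the day after seeding. Nuclei were counted after 5 days, and relative viability is the treated-to-vehicle ratio of nuclei counts. Values are medians of duplicate plates.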

[1] = compound: Cc1ccc(C(=O)Nc2cccc(C(F)(F)F)c2)cc1Nc1cncc(C(N)=O)c1 [ALW-II-49-7] + CC(=O)c1c(C)c2cnc(Nc3ccc(N4CCNCC4)cn3)nc2n(C2CCCC2)c1=O [Palbociclib] (partner 0.5 µM)
How it was run: as §1

ALW-II-49-7 + Decitabine = compound: Cc1ccc(C(=O)Nc2cccc(C(F)(F)F)c2)cc1Nc1cncc(C(N)=O)c1 [ALW-II-49-7] + Nc1ncn([C@H]2C[C@H](O)[C@@H](CO)O2)c(=O)n1 [Decitabine] (partner 2 µM)
How it was run: as §1

Dasatinib + AZD7762 = compound: Cc1nc(Nc2ncc(C(=O)Nc3c(C)cccc3Cl)s2)cc(N2CCN(CCO)CC2)n1 [Dasatinib] + NC(=O)Nc1cc(-c2cccc(F)c2)sc1C(=O)N[C@H]1CCCNC1 [AZD7762] (partner 0.2 µM)
How it was run: as §1

Cell Line	relative viability (XMD13-2 + Alpelisib; first compound 0.05 µM)	relative viability (XMD13-2 + Alpelisib; first compound 0.1581 µM)	relative viability (XMD13-2 + Alpelisib; first compound 0.5 µM)	relative viability (XMD13-2 + Alpelisib; first compound 1.581 µM)	relative viability (XMD13-2 + Alpelisib; first compound 5 µM)	relative viability ([1]; first compound 0.08 µM)	relative viability ([1]; first compound 0.253 µM)	relative viability ([1]; first compound 0.8 µM)	relative viability ([1]; first compound 2.53 µM)	relative viability ([1]; first compound 8 µM)	relative viability (ALW-II-49-7 + Decitabine; first compound 0.08 µM)	relative viability (ALW-II-49-7 + Decitabine; first compound 0.253 µM)	relative viability (ALW-II-49-7 + Decitabine; first compound 0.8 µM)	relative viability (ALW-II-49-7 + Decitabine; first compound 2.53 µM)	relative viability (ALW-II-49-7 + Decitabine; first compound 8 µM)	relative viability (Dasatinib + AZD7762; first compound 0.005 µM)	relative viability (Dasatinib + AZD7762; first compound 0.01581 µM)	relative viability (Dasatinib + AZD7762; first compound 0.05 µM)	relative viability (Dasatinib + AZD7762; first compound 0.1581 µM)	relative viability (Dasatinib + AZD7762; first compound 0.5 µM)
NCI-H460	0.653	0.586	0.498	0.468	0.492	0.171	0.185	0.126	0.136	0.111	0.5	0.488	0.513	0.408	0.492	0.523	0.546	0.542	0.472	0.328
NCI-H647	1.31	1.22	1.14	1.05	1.22	0.422	0.307	0.444	0.294	0.238	0.322	0.321	0.396	0.374	0.307	0.468	0.399	0.141	0.114	0.155
NCI-H650	1.21	1.2	1.43	1.18	1.15	0.277	0.309	0.351	0.327	0.236	0.333	0.334	0.314	0.306	0.321	0.75	0.896	1.01	0.606	0.4
NCI-H727	0.549	0.423	0.527	0.51	0.55	0.604	0.63	0.676	0.555	0.577	0.775	0.884	0.738	0.824	0.703	0.547	0.587	0.595	0.375	0.35
NCI-H838	1.14	1.04	1.01	1	1.06	0.246	0.225	0.203	0.232	0.191	0.413	0.433	0.483	0.447	0.48	0.868	0.786	0.811	0.685	0.669
NCI-H1355	0.924	0.888	0.843	0.777	0.776	0.372	0.428	0.376	0.4	0.436	0.329	0.366	0.391	0.436	0.376	0.851	0.711	0.694	0.571	0.535
NCI-H1395	1.3	1.07	0.976	0.984	1.1	0.583	0.689	0.691	–	0.495	0.674	0.712	0.632	–	0.642	0.401	0.39	0.358	0.356	0.356
NCI-H1437	0.935	1.06	0.955	0.796	1.05	0.288	0.318	0.286	0.34	0.315	0.551	0.553	0.594	0.624	0.644	1.22	1.05	1.04	0.893	0.221
NCI-H1651	1.19	0.899	0.942	0.913	1.02	0.522	0.476	0.49	0.439	0.444	0.637	0.669	0.606	0.604	0.51	0.475	0.384	0.382	0.374	0.333
NCI-H1666	1.02	1.07	0.936	0.874	0.879	0.663	0.655	0.692	0.67	0.666	0.751	0.735	0.735	0.898	0.714	0.852	0.685	0.762	0.622	0.411
NCI-H1734	0.887	0.577	0.662	0.576	0.565	0.293	0.376	0.355	0.319	0.296	0.492	0.53	0.527	0.584	0.574	0.524	0.482	0.482	0.406	0.386
NCI-H1755	0.928	0.915	0.928	0.92	0.965	0.439	0.498	0.41	0.415	0.431	0.66	0.726	0.719	0.756	0.719	0.424	0.33	0.296	0.25	0.215
NCI-H1792	0.845	0.691	0.745	0.845	0.821	0.564	0.454	0.471	0.522	0.548	0.553	0.356	0.486	0.506	0.633	0.62	0.532	0.489	0.19	0.0904
NCI-H1793	0.797	0.835	0.686	0.732	0.897	0.323	0.278	0.29	0.291	0.33	0.518	0.527	0.516	0.471	0.53	0.425	0.369	0.247	0.229	0.273
NCI-H1915	1.1	1.08	1.04	1.05	1.06	0.618	0.595	0.543	0.453	0.414	0.257	0.294	0.261	0.262	0.264	0.693	0.616	0.509	0.21	0.212
NCI-H1944	1.02	0.85	0.889	0.939	0.778	0.353	0.32	0.327	0.346	0.351	0.421	0.432	0.423	0.486	0.389	0.41	0.388	0.294	0.21	0.187
NCI-H1975	0.768	0.642	0.656	0.607	0.648	0.608	0.58	0.459	0.59	0.44	0.43	0.375	0.319	0.375	0.388	0.714	0.538	0.578	0.442	0.317
NCI-H1993	0.666	0.663	0.694	0.763	0.642	0.717	0.717	0.571	0.705	0.684	0.591	0.567	0.603	0.576	0.587	0.777	0.639	0.755	0.444	0.485
NCI-H2085	0.965	0.946	1.04	0.928	0.98	0.441	0.448	0.466	0.432	0.454	0.515	0.537	0.48	0.523	0.55	0.992	0.688	0.436	0.39	0.2
NCI-H2087	1.14	1.08	1.13	1.05	1.03	0.227	0.261	0.239	0.255	0.22	0.244	0.254	0.212	0.311	0.203	1.34	1.19	1.49	0.857	0.556
NCI-H2126	0.825	0.754	0.754	0.767	0.795	0.367	0.332	0.337	0.365	0.374	0.604	0.562	0.545	0.587	0.592	0.971	0.847	0.98	0.885	0.511
NCI-H2170	0.97	0.77	0.871	0.777	0.696	0.367	0.451	0.381	0.403	0.364	0.542	0.478	0.5	0.464	0.468	0.864	0.779	0.633	0.409	0.278
NCI-H2347	1.04	1.07	1.08	0.92	1.05	0.528	0.452	0.43	0.432	0.478	0.714	0.647	0.57	0.718	0.681	0.614	0.538	0.549	0.296	0.282
NCI-H2405	0.935	0.875	0.807	0.81	0.863	0.507	0.591	0.488	0.532	0.468	0.699	0.751	0.75	0.685	0.722	0.656	0.514	0.368	0.212	0.228
NCI-H3122	0.784	0.678	0.782	0.945	0.819	0.223	0.212	0.191	0.397	0.227	0.42	0.392	0.585	0.469	0.42	0.991	0.982	0.951	0.876	0.643
PC-3 [JPC-3]	1.05	0.983	1.06	1.02	0.936	0.536	0.595	0.546	0.561	0.558	0.785	0.95	0.771	0.814	0.873	0.98	1.04	0.755	0.528	0.427
PC-14	1.01	0.936	1.01	0.931	1.11	0.454	0.568	0.471	0.551	0.41	0.247	0.22	0.218	0.266	0.222	0.405	0.468	0.34	0.401	0.112
RERF-LC-KJ	0.776	0.902	0.842	0.641	0.91	1.04	1.07	1.04	0.998	1.08	0.694	0.783	0.729	0.732	0.611	1.06	0.824	0.889	0.761	0.6
